PubChem BioAssay AID2060605 (Molecular Pharmacology Branch, DTP, NCI, 2025)

Test system: 947758-054-R-J2-PDC spheroid growth, percent test/control
Experiment: Anticancer human tumor 947758-054-R-J2-PDC patient-derived colon adenocarcinoma cell line growth inhibition [CLK]
Conditions: spheroids with HUVEC and MSC; for IC50: curve of first compound; for viability, T/C: stronger effect = lower value
Summary of the method: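 Patient-derived tumor cells grown as complex spheroids with HUVEC endothelial cells and mesenchymal stem cells, treated with drug combinations. Concentrations descend in half-log steps from near clinical Cmax, or from 10 microM if Cmax unknown.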

[1] = second compound 0.0316 µM, first compound 0.0316 µM
[2] = second compound 0.0316 µM, first compound 0.1 µM
[3] = second compound 0.0316 µM, first compound 0.316 µM
[4] = second compound 0.0316 µM, first compound 1 µM
[5] = second compound 0.0316 µM, first compound 3.16 µM
[6] = second compound 0.0316 µM, first compound 10 µM
[7] = second compound 0.1 µM, first compound 0.0316 µM
[8] = second compound 0.1 µM, first compound 0.1 µM
[9] = second compound 0.1 µM, first compound 0.316 µM
[10] = second compound 0.1 µM, first compound 1 µM
[11] = second compound 0.1 µM, first compound 3.16 µM
[12] = second compound 0.1 µM, first compound 10 µM
[13] = second compound 0.316 µM, first compound 0.0316 µM
[14] = second compound 0.316 µM, first compound 0.1 µM
[15] = second compound 0.316 µM, first compound 0.316 µM
[16] = second compound 0.316 µM, first compound 1 µM
[17] = second compound 0.316 µM, first compound 3.16 µM
[18] = second compound 0.316 µM, first compound 10 µM
[19] = second compound 1 µM, first compound 0.0316 µM
[20] = second compound 1 µM, first compound 0.1 µM
[21] = second compound 1 µM, first compound 0.316 µM
[22] = second compound 1 µM, first compound 1 µM
[23] = second compound 1 µM, first compound 3.16 µM
[24] = second compound 1 µM, first compound 10 µM
[25] = second compound 3.16 µM, first compound 0.0316 µM
[26] = second compound 3.16 µM, first compound 0.1 µM
[27] = second compound 3.16 µM, first compound 0.316 µM
[28] = second compound 3.16 µM, first compound 1 µM
[29] = second compound 3.16 µM, first compound 3.16 µM
[30] = second compound 3.16 µM, first compound 10 µM
[31] = second compound 10 µM, first compound 0.0316 µM
[32] = second compound 10 µM, first compound 0.1 µM
[33] = second compound 10 µM, first compound 0.316 µM
[34] = second compound 10 µM, first compound 1 µM
[35] = second compound 10 µM, first compound 3.16 µM
[36] = second compound 10 µM, first compound 10 µM
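Further: spheroids exposed to compounds for one week before readout.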
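Wherever viability, T/C is given: 100% = DMSO vehicle control wells.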

C=CC(=O)N1CCN(c2nc(=O)n(-c3c(C)ccnc3C(C)C)c3nc(-c4c(O)cccc4F)c(F)cc23)C(C)C1 (centres undefined) + CN1CCN(c2cc(C(=O)Nc3cc4cc(-c5cnn(C)c5)ccc4cn3)ccn2)CC1
IC50 (second compound 0.0316 µM): > 10000 nM
IC50 (second compound 0.1 µM): > 10000 nM
IC50 (second compound 0.316 µM): < 31.6 nM
IC50 (second compound 1 µM): < 31.6 nM
IC50 (second compound 3.16 µM): < 31.6 nM
IC50 (second compound 10 µM): < 31.6 nM
viability, T/C [1]: 118%
viability, T/C [2]: 143%
viability, T/C [3]: 122%
viability, T/C [4]: 98.4%
viability, T/C [5]: 113%
viability, T/C [6]: 99.8%
viability, T/C [7]: 172%
viability, T/C [8]: 199%
viability, T/C [9]: 161%
viability, T/C [10]: 234%
viability, T/C [11]: 167%
viability, T/C [12]: 77.3%
viability, T/C [13]: 4.67%
viability, T/C [14]: 7.3%
viability, T/C [15]: 6.68%
viability, T/C [16]: 5.29%
viability, T/C [17]: 3.14%
viability, T/C [18]: 1.35%
viability, T/C [19]: 0.18%
viability, T/C [20]: 3.35%
viability, T/C [21]: 0.19%
viability, T/C [22]: 0.19%
viability, T/C [23]: 0.18%
viability, T/C [24]: 0.21%
viability, T/C [25]: 2.2%
viability, T/C [26]: 0.99%
viability, T/C [27]: 0.31%
viability, T/C [28]: 0.31%
viability, T/C [29]: 0.72%
viability, T/C [30]: 0.51%
viability, T/C [31]: 0.46%
viability, T/C [32]: 0.29%
viability, T/C [33]: 1.59%
viability, T/C [34]: 0.39%
viability, T/C [35]: 0.98%
viability, T/C [36]: 0.57%

C#Cc1c(F)ccc2cc(O)cc(-c3ncc4c(N5CC6CCC(C5)N6)nc(OCC56CCCN5CC(F)C6)nc4c3F)c12 (centres undefined) + CN1CCN(c2cc(C(=O)Nc3cc4cc(-c5cnn(C)c5)ccc4cn3)ccn2)CC1
IC50 (second compound 0.0316 µM): > 10000 nM
IC50 (second compound 0.1 µM): > 10000 nM
IC50 (second compound 0.316 µM): < 31.6 nM
IC50 (second compound 1 µM): < 31.6 nM
IC50 (second compound 3.16 µM): < 31.6 nM
IC50 (second compound 10 µM): < 31.6 nM
viability, T/C [1]: 103%
viability, T/C [2]: 123%
viability, T/C [3]: 126%
viability, T/C [4]: 73.3%
viability, T/C [5]: 107%
viability, T/C [6]: 118%
viability, T/C [7]: 145%
viability, T/C [8]: 214%
viability, T/C [9]: 187%
viability, T/C [10]: 214%
viability, T/C [11]: 216%
viability, T/C [12]: 148%
viability, T/C [13]: 5.41%
viability, T/C [14]: 7.64%
viability, T/C [15]: 7.09%
viability, T/C [16]: 6.71%
viability, T/C [17]: 6%
viability, T/C [18]: 5.97%
viability, T/C [19]: 0.17%
viability, T/C [20]: 0.21%
viability, T/C [21]: 0.18%
viability, T/C [22]: 0.22%
viability, T/C [23]: 0.19%
viability, T/C [24]: 0.21%
viability, T/C [25]: 0.19%
viability, T/C [26]: 0.24%
viability, T/C [27]: 0.24%
viability, T/C [28]: 0.2%
viability, T/C [29]: 0.23%
viability, T/C [30]: 0.67%
viability, T/C [31]: 0.38%
viability, T/C [32]: 0.42%
viability, T/C [33]: 0.33%
viability, T/C [34]: 0.37%
viability, T/C [35]: 0.37%
viability, T/C [36]: 0.26%
